Data from patent US7655752B2, “TNF-α converting enzyme inhibitory agents and method of using same” (The United States of America as represented by the …, priority 2003, dated 2010).
Ends that are not written are not given here.

What was measured:
[1] = system: recombinant human TACE (rhTACE); assay: TACE-mediated cleavage of rhTNFR2:Fc model substrate (SDS-PAGE, silver staining, Western blot); assay type: biochemical; settings: for inhibition of TACE-mediated cleavage of TNFR2:Fc: 80 μM peptide, silver staining
Source text: A model assay system was developed to assess the ability of N-TACE to inhibit TACE enzymatic activity. Recombinant human TACE (rhTACE), as well as the recombinant human TNFR1:Fc (rhTNFR1:Fc) and TNFR2:Fc (rhTNFR2:Fc) fusion proteins were purchased from R & D Systems (Minneapolis, Minn.). Both TNFR1:Fc and TNFR2:Fc are recombinant human chimeric proteins that encode the extracellular receptor domains, fused to a carboxy-terminal 6X-histidine-tagged Fc region of human IgG1 via a linker peptide (IEGRMD)(SEQ ID NO:1). Recombinant human TACE corresponds to the mature form following removal of the prodomain and has an apparent molecular weight of 70 kDa. N-TACE(18-54), which lacked the signal peptide, was synthesized by Sigma-Genosys (The Woodlands, Tex.). N-TACE truncation mutants were also synthesized; an amino-terminal mutant N-TACE(18-29) corresponded to N-TACE amino acids 18-29, a mid-domain mutant N-TACE(30-42) corresponded to N-TACE amino acids 30-42, a carboxy-terminal mutant N-TACE(43-54) corresponded to amino acids 43-54, and an extended mid-domain mutant N-TACE(30-48) corresponded to amino acids 30 to 48.
Chou Fasman analysis was performed using MacVector (Accelrys, Burlington, Mass.). Assays (50 μl) were performed in 50 mM Tris, 25 mM NaCl, pH 8.0 at 30° C. for 30 min. Samples were analyzed by SDS-PAGE using 4%-12% Bis-Tris Nupage gels (Invitrogen, Carlsbad, Calif.) and visualized with the SilverQuest Silver Staining Kit (Invitrogen, Carlsbad, Calif.). For Western blot analysis, samples were separated via SDS-PAGE, electroblotted onto nitrocellulose membranes, and incubated overnight (4° C.) with 200 ng/ml of a murine IgG1 monoclonal antibody directed against the histidine tag (Tetra-His, Qiagen, Valenica, Calif.). The antibody detected the carboxy-terminus of the recombinant human TNFR2:Fc fusion protein. A rabbit polyclonal antibody was also generated against N-TACE(18-54) (Sigma-Genosys, The Woodlands, Tex.) and was utilized for Western blotting at a 1:1000 dilution. Detection was by chemiluminescence using horseradish peroxidase-conjugated secondary antibodies.

[2] = system: TNFR2 shedding from U937 cells; assay: TNFR2 shedding from U937 cells (sandwich ELISA of soluble TNFR2 in supernatants); assay type: cell-based; settings: 40 μM, 24 hours
Protocol: (§1) The ability of N-TACE to inhibit TNFR2 shedding was tested in a cell-based system. U937 cells were obtained from ATCC (Manassas, Va.) and maintained in RPMI-1640 medium with 10% fetal bovine serum. For experiments, U937 cells were plated into 6 well plates at a density of 2×10^6 cells/ml. PMA was purchased from Sigma (St. Louis, Mo.). Release of TNFR2 into […] cell culture supernatants over a 24-hour period was assayed utilizing a sandwich ELISA with a sensitivity of 7.8 pg/ml (R & D Systems). Cellular apoptosis and necrosis were measured using the TACS Annexin V-FITC Apoptosis Detection Kit (R & D Systems, Minneapolis, Minn.) and a XL-MCL Flow Cytometer (Becman-Coulter, Miami, Fla.). Statistical analysis was performed by a paired Student's t test with a Bonferroni correction for multiple comparisons and by single factor ANOVA. Differences were considered significant at a P value <0.05.
(§2) The U937 monocytic cells were treated for 24 hours with either N-TACE(18-54) (0.04 to 40 μM), or a peptide corresponding to N-TACE amino acids 18-29 (40 μM). […] In contrast, N-TACE(18-29) had no effect on TNFR2 shedding as compared to cells treated with media alone (186.5±1.8 vs. 184.6±2.2, n=6, P=NS).

U937 cells = assay: Cellular apoptosis and necrosis (Annexin V binding and propidium iodide uptake, flow cytometry); assay type: cell-based
Protocol: as §1, §2

[3] = 0.5 μM rhTACE, 0.95 μM TNFR2:Fc, 30 min

vasoactive intestinal peptide (HSDAVFTDNYTRLRKQMAVKKYLNSILN) [VIP, irrelevant peptide purchased from Bachem, specificity control, reference compound]
inhibition of TACE-mediated cleavage of TNFR2:Fc [1, 3]: neither α-defensin or VIP inhibited

N-TACE(18-29): amino-terminal truncation mutant corresponding to N-TACE amino acids 18-29 (PRPPDDPGFGPH)
inhibition of TACE-mediated cleavage of TNFR2:Fc [1, 3]: none of the N-TACE truncation mutants (80 μM) inhibited | effect on TNFR2 shedding ([2]; compared to media alone): no effect

N-TACE(30-48): extended mid-domain mutant, 19-amino acid leucine-rich peptide, amino acids 30 to 48; QRLEKLDSLLSDYDILSLS (listed as Homo sapiens)
inhibition of TACE-mediated cleavage of TNFR2:Fc [1, 3]: inhibited | inhibition of TNFR2 shedding ([2]; compared to cells treated with media alone): about 16%

N-TACE(43-54): carboxy-terminal truncation mutant corresponding to amino acids 43-54 (DILSLSNIQQHS)
inhibition of TACE-mediated cleavage of TNFR2:Fc [1, 3]: none of the N-TACE truncation mutants (80 μM) inhibited

N-TACE(30-42): mid-domain truncation mutant corresponding to N-TACE amino acids 30-42 (QRLEKLDSLLSDY)
inhibition of TACE-mediated cleavage of TNFR2:Fc [1, 3]: none of the N-TACE truncation mutants (80 μM) inhibited

PRPPDDPGFGPHQRLEKLDSLLSDYDILSLSNIQQHS [N-TACE(18-54)]
apoptosis or necrosis as cause of decreased TNFR2 shedding (U937 cells): not a consequence of either apoptosis or necrosis

CC(C)C[C@H](CC(=O)NO)C(=O)N[C@H](C(=O)N[C@@H](C)C(=O)NCCN)C(C)(C)C [TAPI-2, reference compound]
inhibition of TACE-mediated TNFR2 cleavage ([1]; 25 μM, 0.5 μM rhTACE, 0.95 μM TNFR2:Fc, 30 min): completely inhibited

N-TACE: 54 amino acid protein: first 54 amino acids of TACE, signal peptide plus amino-terminus of prodomain, SEQ ID NO:3 (MRQSLLFLTSVVPFVLAPRPPDDPGFGPHQRLEKLDSLLSDYDILSLSNIQQHS; listed as Homo sapiens)
inhibition of TACE-mediated cleavage of TNFR2:Fc (summary statement) ([1]; concentration not given): shown to inhibit
